Assay results from PubChem BioAssay AID2060336 (Molecular Pharmacology Branch, DTP, NCI, 2025).
Several values for one entry are separate records, joined by “and”; a condition that tells them apart may be missing. Identical values can stand only once.

Test system: 958767-090-R-J1-PDC spheroid growth
Experiment: Anticancer human tumor 958767-090-R-J1-PDC patient-derived head and neck squamous carcinoma cell line growth inhibition [IpAb]
Conditions: spheroids with HUVEC and MSC; for viability, T/C: stronger effect = lower value; active = viability on the fitted dose curve at most 10% of control; inactive = the rest
How it was run: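 Multi-cell spheroids of 60% tumour cells, 25% HUVEC and 15% MSC in ultra-low-attachment U-bottom wells, treated with agents combined with ipatasertib or abemaciclib. Half-log ranges top out near clinical Cmax, or 10 microM when Cmax is unknown.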

[1] = curve of first compound, second compound 0.1 µM
[2] = curve of first compound, second compound 0.316 µM
[3] = curve of first compound, second compound 1 µM
[4] = curve of first compound, second compound 3.16 µM
[5] = curve of first compound, second compound 10 µM
[6] = second compound 0.1 µM, first compound 0.0316 µM
[7] = second compound 0.1 µM, first compound 0.1 µM
[8] = second compound 0.1 µM, first compound 0.316 µM
[9] = second compound 0.1 µM, first compound 1 µM
[10] = second compound 0.1 µM, first compound 3.16 µM
[11] = second compound 0.1 µM, first compound 10 µM
[12] = second compound 0.316 µM, first compound 0.0316 µM
[13] = second compound 0.316 µM, first compound 0.1 µM
[14] = second compound 0.316 µM, first compound 0.316 µM
[15] = second compound 0.316 µM, first compound 1 µM
[16] = second compound 0.316 µM, first compound 3.16 µM
[17] = second compound 0.316 µM, first compound 10 µM
[18] = second compound 1 µM, first compound 0.0316 µM
[19] = second compound 1 µM, first compound 0.1 µM
[20] = second compound 1 µM, first compound 0.316 µM
[21] = second compound 1 µM, first compound 1 µM
[22] = second compound 1 µM, first compound 3.16 µM
[23] = second compound 1 µM, first compound 10 µM
[24] = second compound 3.16 µM, first compound 0.0316 µM
[25] = second compound 3.16 µM, first compound 0.1 µM
[26] = second compound 3.16 µM, first compound 0.316 µM
[27] = second compound 3.16 µM, first compound 1 µM
[28] = second compound 3.16 µM, first compound 3.16 µM
[29] = second compound 3.16 µM, first compound 10 µM
[30] = second compound 10 µM, first compound 0.0316 µM
[31] = second compound 10 µM, first compound 0.1 µM
[32] = second compound 10 µM, first compound 0.316 µM
[33] = second compound 10 µM, first compound 1 µM
[34] = second compound 10 µM, first compound 3.16 µM
[35] = second compound 10 µM, first compound 10 µM
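Also: spheroids exposed to agents for 7 days.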
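For viability, T/C in this document: 100% = DMSO vehicle control wells.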

CCCS(=O)(=O)Nc1ccc(F)c(C(=O)c2c[nH]c3ncc(-c4ccc(Cl)cc4)cc23)c1F + CC(C)NCC(C(=O)N1CCN(c2ncnc3c2C(C)CC3O)CC1)c1ccc(Cl)cc1
inactive: viability, T/C [6] 93.3% | viability, T/C [7] 89.6% | viability, T/C [8] 94.7% | viability, T/C [9] 95.9% | viability, T/C [10] 86.9% | viability, T/C [11] 73.9% | viability, T/C [12] 67.9% | viability, T/C [13] 78.2% | viability, T/C [14] 74.1% | viability, T/C [15] 59.6% | viability, T/C [16] 72.5% | viability, T/C [17] 48.2% | viability, T/C [18] 68.4% | viability, T/C [19] 61.2% | viability, T/C [20] 59.8% | viability, T/C [21] 60.2% | viability, T/C [22] 60.8% | viability, T/C [23] 37.7% | viability, T/C [24] 59.6% | viability, T/C [25] 56.9% | viability, T/C [26] 51% | viability, T/C [27] 51.7% | viability, T/C [28] 54.4% | viability, T/C [29] 32.7% | viability, T/C [30] 46.1% | viability, T/C [31] 50.3% | viability, T/C [32] 54.9% | viability, T/C [33] 42.3% | viability, T/C [34] 40.8% | viability, T/C [35] 14.6%
> 10000 nM: IC50 [1]
< 31.6 nM: IC50 [5]
5370 nM: IC50 [3]
9060 nM: IC50 [2]
3950 nM: IC50 [4]

CC1(C)CCC(CN2CCN(c3ccc(C(=O)NS(=O)(=O)c4ccc(NCC5CCOCC5)c([N+](=O)[O-])c4)c(Oc4cnc5[nH]ccc5c4)c3)CC2)=C(c2ccc(Cl)cc2)C1
5490 nM and 5830 nM: IC50 (curve of compound)
inactive: viability, T/C (compound 0.0316 µM) 79.8% and 92% | viability, T/C (compound 0.1 µM) 86.8% and 104% | viability, T/C (compound 0.316 µM) 90.3% and 99% | viability, T/C (compound 1 µM) 93.9% and 100% | viability, T/C (compound 3.16 µM) 105% and 112%
active: viability, T/C (compound 10 µM) 5.27% and 4.22%

CC(C)n1nc(-c2ccc3oc(N)nc3c2)c2c(N)ncnc21
13.9 nM and 11.9 nM: IC50 (curve of compound)
inactive: viability, T/C (compound 0.000316 µM) 84.9% and 95.3% | viability, T/C (compound 0.001 µM) 89.9% and 94.5% | viability, T/C (compound 0.00316 µM) 74.5% and 73.8% | viability, T/C (compound 0.01 µM) 55.9% and 54.9% | viability, T/C (compound 0.0316 µM) 36.9% and 34.2% | viability, T/C (compound 0.1 µM) 39.7% and 32.1%

Cc1nc(NC(=O)N2CCCC2C(N)=O)sc1-c1ccnc(C(C)(C)C(F)(F)F)c1 (stereo not drawn) + CC(C)NCC(C(=O)N1CCN(c2ncnc3c2C(C)CC3O)CC1)c1ccc(Cl)cc1
136 nM: IC50 [1]
63.5 nM: IC50 [2]
active: viability, T/C [23] 9.52% | viability, T/C [29] 7.8% | viability, T/C [34] 9.96% | viability, T/C [35] 5.52%
inactive: viability, T/C [6] 72.7% | viability, T/C [7] 49.6% | viability, T/C [8] 38.1% | viability, T/C [9] 34.2% | viability, T/C [10] 20.7% | viability, T/C [11] 12.2% | viability, T/C [12] 54.4% | viability, T/C [13] 49.1% | viability, T/C [14] 32.3% | viability, T/C [15] 26.7% | viability, T/C [16] 16.2% | viability, T/C [17] 11.1% | viability, T/C [18] 46.6% | viability, T/C [19] 32.7% | viability, T/C [20] 30.9% | viability, T/C [21] 20.9% | viability, T/C [22] 15.6% | viability, T/C [24] 38.4% | viability, T/C [25] 28.4% | viability, T/C [26] 24.2% | viability, T/C [27] 18.3% | viability, T/C [28] 14.4% | viability, T/C [30] 31.6% | viability, T/C [31] 24.6% | viability, T/C [32] 16.5% | viability, T/C [33] 10.8%
< 31.6 nM: IC50 [3] | IC50 [4] | IC50 [5]

C=CC(=O)N1CCN(c2nc(=O)n(-c3c(C)ccnc3C(C)C)c3nc(-c4c(O)cccc4F)c(F)cc23)C(C)C1 (stereo not drawn)
inactive: viability, T/C (compound 0.0316 µM) 99.7% and 95% | viability, T/C (compound 0.1 µM) 93.8% and 88.2% | viability, T/C (compound 0.316 µM) 97.1% and 102% | viability, T/C (compound 1 µM) 94.9% and 107% | viability, T/C (compound 3.16 µM) 83.6% and 75.9% | viability, T/C (compound 10 µM) 39.8%
7660 nM and 7220 nM: IC50 (curve of compound)

COc1c(OCCCN2CCOCC2)ccc2c3n(c(=NC(=O)c4cnc(N)nc4)nc12)CCN3
active: viability, T/C (compound 1 µM) 4.88% and 4.05%
8.95% and 9.82%: viability, T/C (compound 0.316 µM)
inactive: viability, T/C (compound 0.00316 µM) 64.4% and 71.9% | viability, T/C (compound 0.01 µM) 50% and 60.7% | viability, T/C (compound 0.0316 µM) 34.6% and 39.4% | viability, T/C (compound 0.1 µM) 15.9% and 25.2%
10.7 nM and 18.2 nM: IC50 (curve of compound)

CC(C)NCC(C(=O)N1CCN(c2ncnc3c2C(C)CC3O)CC1)c1ccc(Cl)cc1 (stereo not drawn)
inactive: viability, T/C (compound 0.1 µM) 90.6% [middle of 13 runs] | viability, T/C (compound 1 µM) 50.7% [middle of 13 runs]

CCN1CCN(Cc2ccc(Nc3ncc(F)c(-c4cc(F)c5nc(C)n(C(C)C)c5c4)n3)nc2)CC1
inactive: viability, T/C (compound 0.1 µM) 63.6% [middle of 13 runs] | viability, T/C (compound 1 µM) 80.7% [middle of 12 runs]
> 1000 nM: IC50 (compound alone, run of 06/01/2021)

Cn1cnc2c(F)c(Nc3ccc(Br)cc3Cl)c(C(=O)NOCCO)cc21 + CC(C)NCC(C(=O)N1CCN(c2ncnc3c2C(C)CC3O)CC1)c1ccc(Cl)cc1
inactive: viability, T/C (second compound 0.1 µM, first compound 0.00949 µM) 62% | viability, T/C (second compound 0.1 µM, first compound 0.03 µM) 38.9% | viability, T/C (second compound 0.1 µM, first compound 0.0949 µM) 30.5% | viability, T/C (second compound 0.1 µM, first compound 0.3 µM) 20.8% | viability, T/C (second compound 0.1 µM, first compound 0.949 µM) 17.7% | viability, T/C (second compound 0.1 µM, first compound 3 µM) 9.06% | viability, T/C (second compound 0.316 µM, first compound 0.00949 µM) 36% | viability, T/C (second compound 0.316 µM, first compound 0.03 µM) 26.8% | viability, T/C (second compound 0.316 µM, first compound 0.0949 µM) 19.2% | viability, T/C (second compound 0.316 µM, first compound 0.3 µM) 14.3% | viability, T/C (second compound 1 µM, first compound 0.00949 µM) 28.1% | viability, T/C (second compound 1 µM, first compound 0.03 µM) 21.7% | viability, T/C (second compound 1 µM, first compound 0.0949 µM) 15.2% | viability, T/C (second compound 3.16 µM, first compound 0.00949 µM) 30.4% | viability, T/C (second compound 3.16 µM, first compound 0.03 µM) 18.6% | viability, T/C (second compound 3.16 µM, first compound 0.0949 µM) 10.1% | viability, T/C (second compound 10 µM, first compound 0.00949 µM) 21.7%
< 9.49 nM: IC50 [2] | IC50 [3] | IC50 [4] | IC50 [5]
active: viability, T/C (second compound 0.316 µM, first compound 0.949 µM) 9.47% | viability, T/C (second compound 0.316 µM, first compound 3 µM) 3.29% | viability, T/C (second compound 1 µM, first compound 0.3 µM) 10.1% | viability, T/C (second compound 1 µM, first compound 0.949 µM) 4.39% | viability, T/C (second compound 1 µM, first compound 3 µM) 1.34% | viability, T/C (second compound 3.16 µM, first compound 0.3 µM) 6.15% | viability, T/C (second compound 3.16 µM, first compound 0.949 µM) 1.7% | viability, T/C (second compound 3.16 µM, first compound 3 µM) 0.65% | viability, T/C (second compound 10 µM, first compound 0.03 µM) 9.62% | viability, T/C (second compound 10 µM, first compound 0.0949 µM) 4.16% | viability, T/C (second compound 10 µM, first compound 0.3 µM) 1.43% | viability, T/C (second compound 10 µM, first compound 0.949 µM) 0.55% | viability, T/C (second compound 10 µM, first compound 3 µM) 0.67%
18.2 nM: IC50 [1]
